Assay results reported in patent publication US20260306463A1, “SIK INHIBITORS TO TREAT CHRONIC KIDNEY DISEASE” (The General Hospital Corporation, priority 2023, published 2026).

Key:
[1] = tested on: YAP/TAZ responsive reporter; assay: YAP/TAZ responsive luciferase reporter assay; type: cell-based, mouse (NIH3T3 cells); details: 24 hours; for TGFß-stimulated YAP/TAZ reporter activity: TGFß stimulation
Procedure: FIGS. 14A-14E. SIK pathway controls YAP/TAZ-dependent myofibroblast activation in kidney Gli1 cells. KGlil cells were treated as indicated for 48 hours followed by (A) immunoblotting and (B) RT-qPCR. (C) KGlil cells were treated±TGFß (5 ng/mL) or verteporfin (1 μM) for 48 hours followed by imnunoblotting. (D) Luciferase assay from cells were transfected with a YAP/TAZ responsive reporter. SIK inhibitor and forskolin both block basal and TGFß-stimulated-YAP/TAZ reporter activity. (E) Top, KGlil cells were treated for 24 hours as indicated followed by immunoblotting. Bottom, kidney lysates from adenine diet CKD mice were analyzed by immunoblotting as indicated.
To assess the signal of YAP/TAZ responsive reporter, the mouse fibroblast cell line NIH3T3 cells were transfected 24 hours after plating at 50,000 cells/ml in a 10 cm dish by using 15 μl Polyjet transfection reagent (SignaGen Laboratories, SL100688) and 5 μg of 8xGTIIC-luciferase construct. 48 hours after, the cells were then trypsinized and plated on a black 96-well plate and treated the next day for 24 hours. The luciferase and renilla signals were read using Renilla Luciferase Assay System kit (Promega, E2810) and EnVision plate reader (PerkinElmer).

human kidney organoids = assay: cisplatin injury of human kidney organoids: immunostaining, organoid size; type: cell-based; details: intermittent cisplatin, 5 treatments
Procedure: FIG. 7. SK-124 preserves human kidney organoid integrity in cisplatin injury model. Human kidney organoids derived from H9 embryonic stem cells were treated with intermittent cisplatin (5 separate treatments) based on published protocols along with the indicated agent. Organoids were cryo-sectioned and immuno-stained with the indicated markers. The top panels show low power images and the bottom panels focus on regions of proximal tubule cells. The graph measures the mean diameter of organoids in the control (no cisplatin), cisplatin+DMSO, and cisplatin+SK-124 treatment groups.
BJFF human induced pluripotent stem cells (hPSCs) were maintained on Geltrexcoated (Thermo Fisher Scientific) plates using StemFit Basic04 Complete (Ajinomoto Co. Inc.) as previously reported(25). The cells were passaged weekly using Accutase (STEMCELL Technologies) for dissociation and Y27632 (Tocris) for adhesion. Directed differentiation of hPSCs into kidney organoids has been published elsewhere (29). Briefly, hPSCs were differentiated into metanephric mesenchyme cells on day 8 by a three-step directed differentiation protocol. Metanephric mesenchyme was transferred into suspension culture in 96-well ultralow adhesion plates (Coming) and further differentiated into kidney organoids, as previously reported(25). Quality control measures of SIX2 immunostaining on day 8 of differentiation and CDH1, LTL, PODXL, CD146, MEIS1/2/3, and SYTOX-blue staining on day 21 were performed on all batches of kidney organoids to limit batch-to-batch heterogeneity. Kidney organoids were maintained in 200 μl of basal media consisting of Advanced RPMI (Thermo Fisher Scientific) and GlutaMAX (Thermo Fisher Scientific) in 96-well plates, as previously reported. Media changes were conducted three times weekly with removal of 90 [l and addition of 100 μl of fresh basal media.
For cisplatin induced injury, day 49 organoids were treated with 5 μM cisplatin in basal media after full media change. After 24 hours, full media exchanges were performed. This 24-hour treatment was performed twice a week, on day 52-53, day 56-57, day 59-60, and day 63-64 as well, for a total of five cisplatin treatments. Samples were obtained for RT-qPCR and immunostaining immediately following each 24-hour treatment with cisplatin, and from corresponding controls.
Following the treatment, the organoids were collected and immediately fixed in 4% PFA in PBS for 1 hour at room temperature, submerged in 30% sucrose overnight at 4° C., then embedded in O.C.T. Compound (4585. Fisher HealthCare). Subsequently, […] frozen sections were prepared via cryo-sectioning by a cryostat. After 1 hr blocking at room temperature, the sections were treated overnight at 4° C. with primary antibodies in antibody dilution buffer (ADB) with biotinylated LTL (1:200, B-1325, Vector), rat anti-CDH1 (1:500, ab11512, Abcam), goat anti-PODXL (1:500, AF1658, R&D Systems), as well as the antibody of interest, either mouse anti-p21 (1:200, NBP2-43697, Novus Biologicals), or rabbit anti-γH2AX (1:100, 2577, Cell Signaling) antibodies. For the optimum labeling of LTL by biotin/streptavidin interaction, the Streptavidin/Biotin Blocking Kit (SP-2002, Vector Laboratories) was applied according to the manufacturer's instructions. After washing, the samples were stained for 1 hour at RT with the nuclear dye-SYTOX Blue (1:500. S 11348, Invitrogen) and the corresponding secondary antibodies in ADB such as streptavidin-AF750 (1:500, S21384, Invitrogen), donkey anti-rat IgG-AF594 (1:500, A21209, Invitrogen), donkey anti-goat IgG-AF555 (1:500, A21432, Invitrogen), and donkey anti-rabbit IgG-AF488 (1:500, A21206, Invitrogen) for γH2AX or donkey anti-mouse IgG-AF488 (1:500, A21202, Invitrogen) for p21 antibodies as well as mouse anti-Meisl/⅔ (1:200, sc-101850, SantaCruz) conjugated antibody, and slides were mounted with Vectashield antifade mounting medium (H1000, Vector Laboratories). […]

kidney = details: literature (ref. 21); cited from earlier work

Molecule	basal YAP/TAZ reporter activity [1]	TGFß-stimulated YAP/TAZ reporter activity [1]	patterns of cisplatin-induced injury (human kidney organoids)	anti-fibrotic effects in kidney (kidney)
2-[2,6-Dimethoxy-4-[7-(1-methylpyrazol-4-yl)imidazo[1,2-a]pyridin-3-yl]phenyl]-5-ethyl-1,3,4-oxadiazole [SK-124]	block	block		
C=C[C@@]1(C)CC(=O)[C@]2(O)[C@@]3(C)[C@@H](O)CCC(C)(C)[C@@H]3[C@H](O)[C@H](OC(C)=O)[C@@]2(C)O1 [forskolin, reference compound]	block	block		
C=C1/C(=C\C=C2/CCC[C@]3(C)[C@@H]([C@H](C)CCCC(C)(C)O)CC[C@@H]23)C[C@@H](O)C[C@@H]1O [calcitriol, 1,25-dihydroxy-vitamin D, reference compound]			minimal effects	anti-fibrotic effects in kidney
